Assay results published in patent US9284283B2, “Macrocyclic compounds for modulating IL-17” (ENSEMBLE THERAPEUTICS CORPORATION, priority 2012, dated 2016).
pIC50: −log10 of the molar value.

Molecular target: T1, biotinylated human IL-17 (binding to IL17R/Fc) (Homo sapiens, UniProt Q16552)
T1 construct: purchased R&D Systems 317-ILB (IL-17, biotinylated); 177-IR (IL17R/Fc)
T1 sequence (Q16552 20-155 limits assumed): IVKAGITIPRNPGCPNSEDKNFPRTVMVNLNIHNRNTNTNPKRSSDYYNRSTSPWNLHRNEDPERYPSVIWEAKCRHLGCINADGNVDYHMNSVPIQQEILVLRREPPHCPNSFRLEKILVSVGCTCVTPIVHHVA
Experiment: IL-17 competition ELISA II (captured IL17R/Fc, biotinylated IL-17)
Description: In this version, a high binding 96-well plate (Costar #9018) was coated with 20 nM of goat anti-human IgG (KPL 01-10-02) in PBS, 100 μL/well, for 30 min at 37° C. followed by 5 min at 4° C. The plate was then washed in PBST (PBS/0.05% Tween-20) on a plate washer, (BioTek ELx450) then blocked with protein-free blocking buffer (Thermo Scientific #37573) in 250 μL/well for 30 min on a shaker at room temperature, and then washed again. IL17R/Fc (R&D Systems #177-IR; 10 nM in PBST, 100 μL/well) was then added to all wells. The plate was then incubated for 30 minutes at room temperature on the shaker.
While the receptor capture step was underway, compound dilutions were prepared in PBST to a concentration of 1 μM in 1.5 mL tubes. After the receptor capture step, the plate was washed and 50 μL PBST was added to the wells in row B down to row H. Then, 62.5 μL of the 1 μM compound dilutions were added to the wells of row A. From row A, 12.5 μL of the compound solution was removed and added to row B with mixing and this process of 5-fold dilutions was continued, by row, to row G. One of the wells in row A received only PBST (62.5 μL) and this dilution series served as the no competitor control. Then, going up from row G to row A, 50 μL of b-IL-17 (biotinylated human IL-17, R&D Systems #317-ILB; 20 nM) was added to all wells. Row H received 50 μL of PBST and served as the blank row, i.e., no compound and no b-IL-17. The plate was then incubated for 30 minutes at room temperature on the shaker.
After the wash, 100 μL Streptavidin-Horseradish Peroxidase (SA-HRP) (KPL #14-30-00) at 25 ng/mL in PBST was added to each well in the plate and the plate incubated for 30 minutes at room temperature followed by wash and 100 μL SureBlue™ TMB (KPL #52-00-03). After sufficient color development (approx 3-6 minutes), the reaction was fixed by the addition of 100 μL/well 0.5 N HCl and absorbance was measured at 450 nm on a BioTek Synergy 2 plate reader. The absorbances of ‘no competitor’ control and blank control should not exceed 1.5 A.U. and 0.06 A.U., respectively.
Data was processed using BioAssay Enterprise v10.1.4 (CambridgeSoft) software. Linear OD λ450 were plotted against log concentration (x) and fitted to a 4-parameter logistic equation. IC50 was calculated using positive ‘no competitor’ control data as an upper limit and blank control as a lower limit in each assay.

| pIC50 | Structure (SMILES) |
| --- | --- |
| 6.00 to 7.00 | C[C@H]1NC(=O)[C@@H](Cc2ccc(NC(=O)[C@@H](Cc3ccccc3Cl)NC(=O)Cc3ccc(F)cc3)cc2)NC(=O)[C@@H]2CC[C@@H](C2)C(=O)NCCCCCNC1=O [Compound 564] |
| > 7.00 | CN1CCCCCN(C)C(=O)CC2(CCCC2)CC(=O)N[C@H](Cc2ccc(NC(=O)[C@H](Cc3ccccc3Cl)NC(=O)Cc3ccccc3)cc2)C(=O)NCC1=O [Compound 387] |
| > 7.00 | C[C@H]1NC(=O)[C@@H](Cc2ccc(NC(=O)[C@H](Cc3ccccc3Cl)NC(=O)Cc3ccc(F)cc3)cc2)NC(=O)CC(C)(C)NC(=O)CCCCCCNC1=O [Compound 620] |
| > 7.00 | Cc1cccc(CC(=O)N[C@@H](Cc2ccccc2Cl)C(=O)Nc2ccc(C[C@H]3NC(=O)CC4(CCCC4)CC(=O)NCCOCCOCCNC3=O)cc2)c1 [Compound 496] |
| > 7.00 | C[C@H]1NC(=O)[C@@H](Cc2ccc(NC(=O)[C@H](Cc3ccccc3Cl)NC(=O)c3ccc(F)cc3)cc2)NC(=O)CC2(CCCC2)CC(=O)N(C)CCCCCN(C)C1=O [Compound 525] |
| > 7.00 | C[C@H]1NC(=O)[C@@H](Cc2ccc(NC(=O)[C@H](Cc3ccccc3Cl)NC(=O)OCc3ccccc3)cc2)NC(=O)CC2(CCCC2)CC(=O)N(C)CCN(C)CCN(C)C1=O [Compound 587] |
| 5.00 to 6.00 | O=C1CNC(=O)[C@H](Cc2ccc(NC(=O)[C@@H](Cc3ccccc3Cl)NC(=O)Cc3ccccc3)cc2)NC(=O)CC2(CCCC2)CC(=O)NCCCCCN1 [Compound 452] |
| > 7.00 | CN1CCNC(=O)CC2(CCCC2)CC(=O)N[C@H](Cc2ccc(NC(=O)[C@H](Cc3ccccc3Cl)NC(=O)NCc3ccccc3)cc2)C(=O)NCC1 [Compound 485] |
| > 7.00 | C[C@H]1NC(=O)[C@@H](Cc2ccc(NC(=O)[C@H](Cc3ccccc3Cl)NC(=O)Cc3ccc(F)cc3)cc2)NC(=O)CC2(CCCC2)CC(=O)N2CCN(CCNC1=O)CC2 [Compound 541] |
| > 7.00 | O=C1CC2(CCCC2)CC(=O)N[C@H](Cc2ccc(NC(=O)[C@H](Cc3ccccc3Cl)NC(=O)c3ccc(F)cc3)cc2)C(=O)NCCOCCOCCN1 [Compound 521] |
| > 7.00 | O=C1CC2(CCCC2)CC(=O)N[C@H](Cc2ccc(NC(=O)[C@H](Cc3ccccc3Cl)NC(=O)Cc3ccc(F)cc3)cc2)C(=O)N[C@H](Cc2ccccn2)C(=O)NCCCCCN1 [Compound 435] |
| > 7.00 | NC(=O)CC[C@@H]1NC(=O)[C@@H](Cc2ccc(NC(=O)[C@H](Cc3ccccc3Cl)NC(=O)Cc3ccc(F)cc3)cc2)NC(=O)CC2(CCCC2)CC(=O)N[C@H](C(=O)O)CCCCNC1=O [Compound 651] |
| 6.00 to 7.00 | Cc1ccc(C[C@H](NC(=O)C2(c3ccc(F)cc3)CC2)C(=O)Nc2ccc(C[C@H]3NC(=O)CC4(CCCC4)CC(=O)N(C)CCCCCNC(=O)[C@@H](C)NC3=O)cc2)c(C)c1 [Compound 509] |
| > 7.00 | C[C@H]1NC(=O)[C@@H](Cc2ccc(NC(=O)[C@H](Cc3ccccc3Cl)NC(=O)Cc3ccc(CO)cc3)cc2)NC(=O)CC2(CCCC2)CC(=O)NCc2cccc(c2)CNC1=O [Compound 520] |

The next lines start with the compound.

| Structure (SMILES) | pIC50 |
| --- | --- |
| C[C@H]1NC(=O)[C@@H](CCCCNC(=O)[C@H](Cc2ccccc2Cl)NC(=O)C(F)(F)c2ccccc2)NC(=O)CC2(CCCC2)CC(=O)NCCCCCNC1=O [Compound 606] | < 5.00 |
| CN1CCOCCOCCN(C)C(=O)[C@@H](Cc2ccc(NC(=O)[C@H](Cc3ccccc3Cl)NC(=O)C(F)(F)c3ccccc3)cc2)NC(=O)CC2(CCCC2)CC1=O [Compound 591] | > 7.00 |
| COC(=O)N[C@H](C(=O)Nc1ccc(C[C@H]2NC(=O)CC3(CCCC3)CC(=O)N(C)CCOCCOCCNC2=O)cc1)C1CCCCC1 [Compound 624] | < 5.00 |
| C[C@H]1NC(=O)[C@@H](Cc2ccc(NC(=O)[C@H](Cc3cccs3)NC(=O)C(F)(F)c3ccccc3)cc2)NC(=O)CC2(CCCC2)CC(=O)N(C)CCCCCN(C)C1=O [Compound 630] | > 7.00 |
| C[C@H]1NC(=O)[C@@H](Cc2ccc(NC(=O)[C@@H](Nc3nc4ccccc4o3)C3CCCCC3)cc2)NC(=O)CC2(CCCC2)CC(=O)N(C)CCCCCN(C)C1=O [Compound 665] | > 7.00 |
| C[C@H]1NC(=O)[C@@H](Cc2ccc(NC(=O)[C@@H](NC(=O)C(F)(F)c3ccccc3)C3CCCCC3)cc2)NC(=O)CC2(CCCC2)CC(=O)N(C)CCOCCN(C)C1=O [Compound 602] | > 7.00 |
| O=C1CC2(CCCC2)CC(=O)N[C@H](Cc2ccc(NC(=O)[C@@H](NC(=O)Cc3cccc(O)c3)C3CCCCC3)cc2)C(=O)NCCOCCOCCN1 [Compound 647] | > 7.00 |
| O=C1CNC(=O)[C@@H](Cc2ccc(NC(=O)[C@@H](NC(=O)c3ccc(F)cc3)C3CCCCC3)cc2)NC(=O)CC2(CCCC2)CC(=O)NCCCCCN1 [Compound 403] | > 7.00 |
| CN1CCCCCNC(=O)CC2(CCCC2)CC(=O)NC(Cc2ccc(NC(=O)C(NC(=O)c3cccnc3)C3CCCCC3)cc2)C1=O (stereo not drawn) [Compound 422] | 5.00 to 6.00 |
| O=C1CNC(=O)[C@@H](Cc2ccc(NC(=O)[C@@H](NC(=O)c3ccc(Cl)cc3)C3CCCCC3)cc2)NC(=O)CC2(CCCC2)CC(=O)NCCCCCN1 [Compound 396] | > 7.00 |
| O=C1CC2(CCCC2)CC(=O)N[C@H](Cc2ccc(NC(=O)[C@H](Cc3ccccc3Cl)NC(=O)[C@H](O)c3ccccc3)cc2)C(=O)NCCCCCN1 [Compound 547] | 6.00 to 7.00 |
| CN(C)CCCC[C@H]1NC(=O)[C@@H](Cc2ccc(NC(=O)[C@H](Cc3ccccc3Cl)NC(=O)C(F)(F)c3ccccc3)cc2)NC(=O)CC2(CCCC2)CC(=O)N(C)CCOCCN(C)C1=O [Compound 641] | > 7.00 |
| C[C@H]1NC(=O)[C@@H](Cc2ccc(NC(=O)[C@H](Cc3ccccc3Cl)NC(=O)C(F)(F)c3ccccc3)cc2)NC(=O)CC2(CCCC2)NC(=O)CCNC(=O)CCN(C)C1=O [Compound 636] | > 7.00 |
| C[C@H]1NC(=O)[C@@H](Cc2ccc(NC(=O)[C@@H](NC(=O)Cc3ccc(N(C)C)cc3)C3Cc4ccccc4C3)cc2)NC(=O)CC2(CCCC2)CC(=O)N(C)CCCCCN(C)C1=O [Compound 644] | > 7.00 |
| O=C1CC2(CCCC2)CC(=O)N[C@H](Cc2ccc(NC(=O)[C@H](Cc3ccccc3Cl)NC(=O)[C@@H](O)c3ccccc3)cc2)C(=O)NCCCCCN1 [Compound 546] | 6.00 to 7.00 |
| CN1C(=O)CC2(CCCC2)CC(=O)NCCCCCCCCNC(=O)[C@H]1Cc1ccc(NC(=O)[C@H](Cc2ccccc2Cl)NC(=O)C2(c3ccc(F)cc3)CC2)cc1 [Compound 505] | 5.00 to 6.00 |
| CN1CCCC[C@@H](C(=O)O)N(C)C(=O)CC2(CCCC2)CC(=O)N[C@H](Cc2ccc(NC(=O)[C@H](Cc3ccccc3Cl)NC(=O)C(F)(F)c3ccccc3)cc2)C(=O)N[C@H](CCC(N)=O)C1=O [Compound 667] | > 7.00 |
| O=C1CNC(=O)[C@@H](Cc2ccc(NC(=O)[C@@H](NC(=O)c3cnc4ccccc4c3)C3CCCCC3)cc2)NC(=O)CC2(CCCC2)CC(=O)NCCCCCN1 [Compound 449] | 6.00 to 7.00 |
| C[C@H]1NC(=O)[C@@H](Cc2ccc(NC(=O)[C@H](Cc3ccccc3Cl)NC(=O)C(F)(F)c3ccccc3)cc2)NC(=O)C[C@H](Cc2ccccc2)NC(=O)CCNC(=O)CCNC1=O [Compound 633] | > 7.00 |
| O=C1CNC(=O)[C@@H](Cc2ccc(NC(=O)[C@@H](NC(=O)CC3CCCCC3)C3CCCCC3)cc2)NC(=O)CC2(CCCC2)CC(=O)NCCCCCN1 [Compound 395] | > 7.00 |
| CN1CCOCCOCCNC(=O)[C@@H](Cc2ccc(NC(=O)[C@H](Cc3ccccc3Cl)NC(=O)C(=O)c3ccccc3)cc2)NC(=O)CC2(CCCC2)CC1=O [Compound 585] | > 7.00 |
| C[C@H]1NC(=O)[C@@H](Cc2ccc(NC(=O)[C@H](Cc3ccccc3Cl)NC(=O)C(F)(F)c3ccccc3)cc2)NC(=O)CC2(CCCC2)NC(=O)CCNC(=O)CCNC1=O [Compound 635] | > 7.00 |
| COC(=O)c1coc(N[C@@H](Cc2ccccc2Cl)C(=O)Nc2ccc(C[C@H]3NC(=O)CC4(CCCC4)CC(=O)N(C)CCOCCN(C)C(=O)[C@@H](C)NC3=O)cc2)n1 [Compound 666] | > 7.00 |
| O=C1CC2(CCCC2)CC(=O)N[C@H](Cc2ccc(NC(=O)[C@H](Cc3ccccc3Cl)NC(=O)[C@@H](O)c3ccccc3)cc2)C(=O)NCCOCCOCCN1 [Compound 544] | > 7.00 |
| CN1CCCC/C=C/CNC(=O)[C@@H](Cc2ccc(NC(=O)[C@@H](NC(=O)c3cccnc3)C3CCCCC3)cc2)NC(=O)CC2(CCCC2)CC1=O [Compound 448] | 6.00 to 7.00 |
